From patent US20210115104A1, “AMYLIN ANALOGUES” (Zealand Pharma A/S, priority 2015, published 2021)
*1 amine or outer side, *2 acyl side, *3 side chain or, on linkers, in order; H or OH if unused. Where a SMILES comes first, the peptide text is derived from it. Bridges are numbered along the chain shown (N, C = ends). [ ]: non-standard residue; d: D form. The star is where a group is joined. C20 diacid = O=C(O)CCCCCCCCCCCCCCCCCCC(=O)*; Pro(4R-NH2) = N[C@H]1CN[C@H](C(=O)O)C1; γGlu = O=C(O)[C@H](CCC(=O)[*:2])N[*:1]; Hyp = O=C(O)[C@@H]1C[C@@H](O)CN1; NMeI = CC[C@H](C)[C@H](NC)C(=O)O; Aad = N[C@@H](CCCC(=O)O)C(=O)O; Sar = CNCC(=O)O

Tests used:
[1] = Assessment of physical stability (Thioflavin T fibrillation); type: physicochemical; design: key: FND = fibrillation not detected; FD = fibrillation detected; conditions: 1 mg/ml, 40° C., ThT; for Fibrillation pH 4.0 (Ac): 50 mM acetate buffer pH 4.0, 96 hours; for Fibrillation pH 7.0 (His): 50 mM histidine buffer pH 7.0, 96 hours; for Fibrillation pH 7.0 (Phos.): 50 mM phosphate buffer pH 7.0, 96 hours
Experimental: Solutions containing (i) 1 mg/ml of test peptide, 40 μM ThT and 50 mM phosphate (Ph) buffer (pH 7.0), (ii) 1 mg/ml of test peptide, 40 μM ThT and 50 mM histidine (His) buffer (pH 7.0), and (iii) 1 mg/ml of test peptide, 40 μM ThT and 50 mM acetate (Ac) buffer (pH 4.0), were loaded in a 96-well black fluorescence plate (clear bottom) in triplicate. Data were collected at fixed intervals of 10 min, each preceded by 300 s of automixing (agitation), over a period of 96 hours at 40° C. Physical stability, expressed as lag-time of fibril formation (in hours), was defined as the intersection between two linear regressions representing the initial stable phase and the growth phase.

[2] = Assessment of chemical stability (RP-HPLC normalized purity); type: physicochemical; conditions: 7 days, 40° C., Table 1; for Normalized purity after 7 days, 40° C., pH 4: pH 4, 0.2 mg/ml; for Normalized purity after 7 days, 40° C., pH 7.5: pH 7.5, 0.2 mg/ml; for Normalized purity after 7 days, 40° C., pH 9: pH 9, 0.2 mg/ml; for Normalized purity after 7 days, 40° C., pH 6: pH 6, 0.2 mg/ml
Experimental: Samples of each test peptide were dissolved in MilliQ™ water, and the pH of the solution was adjusted to pH 4, pH 6, pH 7.5 or pH 9, respectively, using either HCl or NaOH. The final peptide concentration was 0.2 mg/ml. Samples were placed in glass vials and incubated at 40° C. The samples were analyzed by RP-HPLC on a C8 column with gradient elution using an ammonium formate/water eluent system, or on a C18 column with gradient elution using a trifluoroacetic acid/water eluent system. The area-percentage (area-%) of the main peak after incubation time T=t (relative to time T=0) was determined by UV spectroscopy at 220 nm.
The purity was first determined as follows:
Purity(area-%)=(area of main peak/total area of all peaks)×100.
The purity was then normalized between time points by setting purity at time 0 (T=0) to 100 for each pH value for a given peptide, as follows:
Normalised area-% at time t (T=t)=[area-%(T=t)/area-%(T=0)]×100.
The normalized purity values in Table 1 were determined after 7 days of incubation.
The chemical stability assessment described in Example 6 was repeated for four pairs of compounds, each differing only by the presence or absence of an Asn-Asn (N—N) doublet at positions 21 and 22.

Structure (SMILES) | Fibrillation pH 4.0 (Ac) [1] | Fibrillation pH 7.0 (His) [1] | Fibrillation pH 7.0 (Phos.) [1] | Normalized purity after 7 days, 40° C., pH 4 [2] | Normalized purity after 7 days, 40° C., pH 7.5 [2] | Normalized purity after 7 days, 40° C., pH 9 [2] | Normalized purity after 7 days, 40° C., pH 6 [2]
CC[C@H](C)[C@@H](C(=O)N[C@@H](CC(C)C)C(=O)N[C@@H](CO)C(=O)N[C@@H](CO)C(=O)N[C@H](C(=O)N[C@@H](CC(N)=O)C(=O)N[C@H](C(=O)NCC(=O)N[C@@H](CO)C(=O)N[C@@H](CC(N)=O)C(=O)N[C@H](C(=O)N1C[C@H](N)C[C@H]1C(N)=O)[C@@H](C)O)C(C)C)[C@@H](C)O)N(C)C(=O)[C@H](C)NC(=O)CN(C)C(=O)[C@H](Cc1ccccc1)NC(=O)[C@H](CC(N)=O)NC(=O)[C@H](CC(N)=O)NC(=O)[C@H](CO)NC(=O)[C@H](CO)NC(=O)[C@H](CCCNC(=N)N)NC(=O)[C@H](Cc1c[nH]cn1)NC(=O)[C@H](CC(C)C)NC(=O)[C@H](Cc1ccccc1)NC(=O)[C@H](Cc1c[nH]cn1)NC(=O)[C@H](C)NC(=O)[C@H](CC(C)C)NC(=O)[C@H](CCCNC(=N)N)NC(=O)[C@H](CCC(N)=O)NC(=O)[C@@H](NC(=O)[C@H](C)NC(=O)[C@@H]1CSSC[C@H](NC(=O)[C@H](CCCNC(=N)N)NC(=O)CC[C@H](NC(=O)CCCCCCCCCCCCCCCCCCC(=O)O)C(=O)O)C(=O)N[C@@H](CC(N)=O)C(=O)N[C@@H]([C@@H](C)O)C(=O)N[C@@H](C)C(=O)N[C@@H]([C@@H](C)O)C(=O)N1)[C@@H](C)O [Compound 5, [19CD]-isoGlu-R-C( )-NTAT-C( )-ATQRLAHFLHRSSNNF-Gly(Me)-A-Ile(Me)-LSSINVGSNT-Apr-NH2] ({C20 diacid-γGlu}-RCNTATCATQRLAHFLHRSSNNF[Sar]A[NMeI]LSSTNVGSNT[Pro(4R-NH2)]-NH2; disulfide 2-7) | FND | FND | FND | B (B = 70-90%) | C (C = <70%) | C (C = <70%) | 
CC[C@H](C)[C@@H](C(=O)N[C@@H](CC(C)C)C(=O)N[C@@H](CO)C(=O)N[C@@H](CO)C(=O)N[C@H](C(=O)N[C@@H](CCC(=O)O)C(=O)N[C@H](C(=O)NCC(=O)N[C@@H](CO)C(=O)N[C@@H](CC(N)=O)C(=O)N[C@H](C(=O)N1C[C@H](O)C[C@H]1C(N)=O)[C@@H](C)O)C(C)C)[C@@H](C)O)N(C)C(=O)[C@H](C)NC(=O)CN(C)C(=O)[C@H](Cc1ccccc1)NC(=O)[C@H](CO)NC(=O)[C@H](CO)NC(=O)[C@H](CCCNC(=N)N)NC(=O)[C@H](CCC(=O)O)NC(=O)[C@H](CC(C)C)NC(=O)[C@H](Cc1ccccc1)NC(=O)[C@H](Cc1c[nH]cn1)NC(=O)[C@H](C)NC(=O)[C@H](CC(C)C)NC(=O)[C@H](CCCNC(=N)N)NC(=O)[C@H](CCC(=O)O)NC(=O)[C@@H](NC(=O)[C@H](C)NC(=O)[C@@H]1CSSC[C@H](NC(=O)[C@H](CCCNC(=N)N)NC(=O)CC[C@H](NC(=O)CCCCCCCCCCCCCCCCCCC(=O)O)C(=O)O)C(=O)NCC(=O)N[C@@H]([C@@H](C)O)C(=O)N[C@@H](C)C(=O)N[C@@H]([C@@H](C)O)C(=O)N1)[C@@H](C)O [Compound 8, [19CD]-isoGlu-R-C( )-GTAT-C( )-ATERLAHFLERSSF-Gly(Me)-A-Ile(Me)-LSSTEVGSNT-Hyp-NH2] ({C20 diacid-γGlu}-RCGTATCATERLAHFLERSSF[Sar]A[NMeI]LSSTEVGSNT[Hyp]-NH2; disulfide 2-7) | FND | FND | FND | A (A = >90%) | A (A = >90%) | A (A = >90%) | B (B = 70-90%)
CC[C@H](C)[C@@H](C(=O)N[C@@H](CC(C)C)C(=O)N[C@@H](CO)C(=O)N[C@@H](CO)C(=O)N[C@H](C(=O)N[C@@H](CCC(=O)O)C(=O)N[C@H](C(=O)NCC(=O)N[C@@H](CO)C(=O)N[C@@H](CCCC(=O)O)C(=O)N[C@H](C(=O)N1C[C@H](O)C[C@H]1C(N)=O)[C@@H](C)O)C(C)C)[C@@H](C)O)N(C)C(=O)[C@H](C)NC(=O)CN(C)C(=O)[C@H](Cc1ccccc1)NC(=O)[C@H](CO)NC(=O)[C@H](CO)NC(=O)[C@H](CCCNC(=N)N)NC(=O)[C@@H](NC(=O)[C@H](CC(C)C)NC(=O)[C@H](Cc1ccccc1)NC(=O)[C@H](Cc1c[nH]cn1)NC(=O)[C@H](C)NC(=O)[C@H](CC(C)C)NC(=O)[C@H](CCCNC(=N)N)NC(=O)[C@H](CCC(=O)O)NC(=O)[C@@H](NC(=O)[C@H](C)NC(=O)[C@@H]1CSSC[C@H](NC(=O)[C@H](CCCNC(=N)N)NC(=O)CC[C@H](NC(=O)CCCCCCCCCCCCCCCCCCC(=O)O)C(=O)O)C(=O)NCC(=O)N[C@@H]([C@@H](C)O)C(=O)N[C@@H](C)C(=O)N[C@@H]([C@@H](C)O)C(=O)N1)[C@@H](C)O)[C@@H](C)O [Compound 12, [19CD]-isoGlu-R-C( )-GTAT-C( )-ATERLAHFLTRSSF-Gly(Me)-A-Ile(Me)-LSSTEVGS-Aad-T-Hyp-NH2] ({C20 diacid-γGlu}-RCGTATCATERLAHFLTRSSF[Sar]A[NMeI]LSSTEVGS[Aad]T[Hyp]-NH2; disulfide 2-7) | FND | FD | FD | A (A = >90%) | B (B = 70-90%) | B (B = 70-90%) | A (A = >90%)
CC[C@H](C)[C@@H](C(=O)N[C@@H](CC(C)C)C(=O)N[C@@H](CO)C(=O)N[C@@H](CO)C(=O)N[C@H](C(=O)N[C@@H](CCC(=O)O)C(=O)N[C@H](C(=O)NCC(=O)N[C@@H](CO)C(=O)N[C@@H](CCC(=O)O)C(=O)N[C@H](C(=O)N1CCC[C@H]1C(N)=O)[C@@H](C)O)C(C)C)[C@@H](C)O)N(C)C(=O)[C@H](C)NC(=O)CN(C)C(=O)[C@H](Cc1ccccc1)NC(=O)[C@H](CCCNC(=N)N)NC(=O)[C@H](Cc1c[nH]cn1)NC(=O)[C@H](CC(C)C)NC(=O)[C@H](Cc1ccccc1)NC(=O)[C@H](Cc1c[nH]cn1)NC(=O)[C@H](C)NC(=O)[C@H](CC(C)C)NC(=O)[C@H](CCCNC(=N)N)NC(=O)[C@H](CCC(N)=O)NC(=O)[C@@H](NC(=O)[C@H](C)NC(=O)[C@@H]1CSSC[C@H](NC(=O)[C@H](CCCNC(=N)N)NC(=O)CC[C@H](NC(=O)CCCCCCCCCCCCCCCCCCC(=O)O)C(=O)O)C(=O)N[C@@H](CC(N)=O)C(=O)N[C@@H]([C@@H](C)O)C(=O)N[C@@H](C)C(=O)N[C@@H]([C@@H](C)O)C(=O)N1)[C@@H](C)O [Compound 14, [19CD]-isoGlu-R-C( )-NTAT-C( )-ATQRLAHFLHRF-Gly(Me)-A-Ile(Me)-LSSTEVGSETP-NH2] ({C20 diacid-γGlu}-RCNTATCATQRLAHFLHRF[Sar]A[NMeI]LSSTEVGSETP-NH2; disulfide 2-7) | FND | FD | FND | A (A = >90%) | A (A = >90%) | A (A = >90%) | A (A = >90%)
